Reference: US9636342B2, “Method for treating prostate cancer” (UNIVERSITY OF SOUTH CAROLINA, priority 2012, dated 2017)

Key:
[1] = tested on: LNCaP-LN3 cells; assay: Growth of androgen-independent LNCaP-LN3 cells in androgen-depleted CSS media (cell count); assay type: cell-based; settings: for growth (total cell number): LNCaP-LN3 cells, 5 μM Senexin B or 10 μM MDV3100 (FIG. 6B)
Description: (§1) In most of CRPC patients, prostate cancer tumor cells restore their AR activities despite low-androgen environment or presence of AR antagonists.

[2] = tested on: CWR22rv1 cells; assay: Growth of androgen-independent CWR22rv1 cells in androgen-depleted CSS media (cell count); assay type: cell-based; settings: for growth (total cell number): 5 μM Senexin B or 10 μM MDV3100 (FIG. 6B)
Description: as §1

[3] = tested on: AR-dependent genes in LNCaP-LN3 cells; assay: qPCR expression of AR-dependent genes KLK3 (PSA) and KLK2 in LNCaP-LN3 cells without androgen; assay type: cell-based; settings: for expression of KLK2 / expression of PSA: LNCaP-LN3 cells, absence of androgen, 5 μM Senexin B or 10 μM MDV3100 (FIG. 6D)
Description: (§2) Endogenous AR activities in these cells were estimated by qPCR analysis of mRNA expression of AR-dependent genes, KLK3 (PSA) and KLK2.

[4] = tested on: AR-dependent genes in CWR22rv1 cells; assay: qPCR expression of AR-dependent genes KLK3 (PSA) and KLK2 in CWR22rv1 cells without androgen; assay type: cell-based; settings: for expression of KLK2 / expression of PSA: absence of androgen, 5 μM Senexin B or 10 μM MDV3100 (FIG. 6D)
Description: as §2

[5] = molecular target: CDK8 (Homo sapiens, UniProt P49336); assay: Senexin B inhibition of CDK8 kinase activity (Kd); assay type: binding
Description: The invention provides a method for treating prostate cancer in a subject comprising administering to the subject an effective amount of a selective inhibitor of one or more of CDK8 and CDK19. […] For purposes of the invention, “specific inhibitors of CDK8/19” are small molecule compounds that inhibit CDK8 or CDK8 and CDK19 to a greater extent than they inhibit certain other CDKs. In some embodiments, such compounds further inhibit CDK8 to a greater extent than CDK9. In preferred embodiments, such greater extent is at least 2-fold more than CDK9. Compounds that are useful in the invention are described in co-pending US Patent Publications 20120071477 and 20120071477 and PCT Publication WO2013/116786. Extent of inhibition is measured by the assays taught in co-pending PCT Publication WO2013/116786.
(§3) These small molecules selectively bind to the ATP pockets of CDK8/19 to inhibit their kinase activity.

[6] = Water solubility; assay type: physicochemical
Description: as §3

[7] = tested on: androgen-responsive genes in LNCaP cells; assay: qPCR expression of androgen-responsive genes in LNCaP cells; assay type: cell-based
[8] = tested on: AR; assay: Promoter activity assay (firefly luciferase reporter) in HEK293 cells overexpressing full-length wild-type AR; assay type: cell-based; settings: for activation of androgen-responsive construct (firefly luciferase reporter under PSA gene promoter): HEK-293 cells overexpressing AR, in the presence of R1881 (FIG. 4A, FIG. 5)
[9] = tested on: C4-2 cells; assay: Growth of androgen-independent C4-2 cells in androgen-depleted CSS media (cell count); assay type: cell-based; settings: different concentrations of Senexin B (FIG. 6A)
Description: as §1

[10] = tested on: PC-3 cells; assay: Growth of PC-3 cells in androgen-depleted CSS media (cell count); assay type: cell-based; settings: different concentrations of Senexin B, p<0.05 vs DMSO (FIG. 7)
Description: PC-3 cell growth was previously shown to be inhibited by the inhibition of transcription factor NFκB^43-45, and CDK8/19 inhibition was discovered by Senex to decrease the induction of NFκB transcriptional activity (PCT Publication WO2013/040153).

[11] = tested on: AR-dependent genes in C4-2 cells; assay: qPCR expression of AR-dependent genes KLK3 (PSA) and KLK2 in C4-2 cells without androgen; assay type: cell-based; settings: CSS media 2d, treated 24 hours (FIG. 6C)
Description: as §2

[12] = tested on: LN-CaP LN3 (LN3) prostate cancer cells xenograft; assay: LNCaP-LN3 xenograft growth in nude mice; assay type: in vivo, nude male mice; settings: 40 mg/kg i.p. daily
Procedure: 6-8 week-old nude male mice (Jackson Laboratory) were subcutaneously injected with 2 million LN-CaP LN3 (LN3) prostate cancer cells in the right flank, with Matrigel. Visible tumors formed ˜14 days after injection. […] The tumor size was measured by caliper 3 times per week and calculated by the equation length*width*width*0.5. […] At the end of the experiment, mice from each group were sacrificed to determine final tumor weight.

CDK8, sequence (P49336 whole entry): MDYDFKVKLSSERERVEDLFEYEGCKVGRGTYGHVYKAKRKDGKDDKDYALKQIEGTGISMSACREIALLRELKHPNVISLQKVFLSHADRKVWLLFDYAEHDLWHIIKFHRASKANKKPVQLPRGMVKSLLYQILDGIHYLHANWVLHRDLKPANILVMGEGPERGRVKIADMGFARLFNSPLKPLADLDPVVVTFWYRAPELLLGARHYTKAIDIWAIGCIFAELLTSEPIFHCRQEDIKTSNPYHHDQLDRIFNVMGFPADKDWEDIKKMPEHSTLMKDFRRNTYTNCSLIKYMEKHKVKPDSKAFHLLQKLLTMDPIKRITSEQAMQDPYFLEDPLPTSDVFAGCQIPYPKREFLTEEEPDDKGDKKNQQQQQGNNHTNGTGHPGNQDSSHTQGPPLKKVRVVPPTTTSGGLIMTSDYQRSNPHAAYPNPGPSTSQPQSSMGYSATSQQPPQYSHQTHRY

SMILES: CNC(=O)c1ccc(N2C(=S)N(c3ccc(C#N)c(C(F)(F)F)c3)C(=O)C2(C)C)cc1F [MDV3100, enzalutamide, reference compound]
- growth (total cell number) [1]: weakly inhibited
- growth (total cell number) [2]: does not inhibit
- expression of KLK2 [3]: does not down-regulate
- expression of PSA [3]: weakly down-regulates
- expression of KLK2 [4]: does not down-regulate
- expression of PSA [4]: does not down-regulate

SMILES: CN1CCN(C(=O)c2ccc3cc(CCNc4ncnc5ccc(C#N)cc45)ccc3c2)CC1 [Senexin B]
- Kd [5]: 140 nM
- water solubility [6]: ≤ 50 mM
- effect on the inhibition of androgen-inhibited genes AR, OPRK1, STXBP6 by androgen ([7]; LNCaP cells, Senexin B 1 μM and 4 μM (FIG. 2C)): did not interfere with the inhibition
- androgen-stimulated transcriptional activation of androgen-responsive genes PSA (KLK3), KLK2, TMPRSS2, SGK1, KLF5, PGC ([7]; LNCaP cells, Senexin B 1 μM and 4 μM, androgen-supplemented (500 pM R1881, 24 hr after 5-day deprivation) (FIG. 2B)): significantly inhibited
- androgen-stimulated transcription of androgen-responsive genes after pretreatment ([7]; androgen-deprived LNCaP cells, Senexin B 1 μM and 4 μM added 1 hr before 500 pM R1881, p<0.05 vs DMSO (FIG. 3)): significantly inhibited
- activation of androgen-responsive construct (firefly luciferase reporter under PSA gene promoter) [8]: significantly inhibited
- androgen-independent growth (total cell number) ([1]; LN3 cells, different concentrations of Senexin B (FIG. 6A)): strongly inhibited
- growth (total cell number) [1]: strongly inhibited
- androgen-independent growth (total cell number) [9]: strongly inhibited
- growth (total cell number) [2]: significantly inhibited
- androgen-independent growth (total cell number) ([2]; different concentrations of Senexin B (FIG. 6A)): strongly inhibited
- growth of PC-3 cells (total cell number) [10]: inhibited
- expression of PSA and KLK2 ([3]; LN3 cells, CSS media 2d, treated 24 hours (FIG. 6C)): down-regulated
- expression of KLK2 [3]: strongly down-regulates
- expression of PSA [3]: strongly down-regulates
- expression of PSA and KLK2 [11]: down-regulated
- expression of PSA and KLK2 ([4]; CSS media 2d, treated 24 hours (FIG. 6C)): down-regulated
- expression of KLK2 [4]: strongly down-regulates
- expression of PSA [4]: strongly down-regulates
- appearance (health) of treated mice ([12]; 5 days per week for 2 weeks): looked as healthy as the mice in the vehicle control group
- body weight of the hosts ([12]; 5 days per week for 2 weeks (FIG. 9)): no effects
- tumor growth (tumor volume) ([12]; 5 days per week for 2 weeks, relative to vehicle control (FIG. 8)): dramatically inhibits
- final tumor weight ([12]; 5 days per week for 2 weeks, vs control group (FIG. 10)): significantly lower

SMILES: N#Cc1ccc2ncnc(NCCc3ccccc3)c2c1 [Senexin A]
- androgen-stimulated transcriptional activation of androgen-responsive genes PSA (KLK3), KLK2, TMPRSS2, PGC ([7]; LNCaP cells, Senexin A 5 μM, androgen-supplemented (500 pM R1881) or androgen-deprived conditions (FIG. 2A)): significantly inhibited
- activation of androgen-responsive construct (firefly luciferase reporter under PGC gene promoter) ([8]; HEK293 cells overexpressing AR, Senexin A 1 μM and 5 μM, in the presence of R1881 (FIG. 4B)): significantly inhibits
- activation of androgen-responsive construct (firefly luciferase reporter under PSA gene promoter) [8]: significantly inhibited
